In brackets after ≈: the same amount, converted by molar mass.
Assays:
[1] = biological target: T1, Estrogen Receptor (ERα) in MCF-7 cells (Homo sapiens (Human), UniProt P03372); test: Western blotting assay, ER down-regulation in MCF-7; format: cell-based; conditions: MCF-7, 100 nM compound, 48 h, vs 100 nM fulvestrant
[2] = biological target: estrogen receptor (ERα) in CAMA-1 cells (Homo sapiens (Human), UniProt P03372); test: Western blotting assay, ER down-regulation in CAMA-1; format: cell-based; conditions: CAMA-1, 100 nM compound, 48 h, vs 100 nM fulvestrant
Chain of estrogen receptor (ERα) in CAMA-1 cells (P03372 whole entry): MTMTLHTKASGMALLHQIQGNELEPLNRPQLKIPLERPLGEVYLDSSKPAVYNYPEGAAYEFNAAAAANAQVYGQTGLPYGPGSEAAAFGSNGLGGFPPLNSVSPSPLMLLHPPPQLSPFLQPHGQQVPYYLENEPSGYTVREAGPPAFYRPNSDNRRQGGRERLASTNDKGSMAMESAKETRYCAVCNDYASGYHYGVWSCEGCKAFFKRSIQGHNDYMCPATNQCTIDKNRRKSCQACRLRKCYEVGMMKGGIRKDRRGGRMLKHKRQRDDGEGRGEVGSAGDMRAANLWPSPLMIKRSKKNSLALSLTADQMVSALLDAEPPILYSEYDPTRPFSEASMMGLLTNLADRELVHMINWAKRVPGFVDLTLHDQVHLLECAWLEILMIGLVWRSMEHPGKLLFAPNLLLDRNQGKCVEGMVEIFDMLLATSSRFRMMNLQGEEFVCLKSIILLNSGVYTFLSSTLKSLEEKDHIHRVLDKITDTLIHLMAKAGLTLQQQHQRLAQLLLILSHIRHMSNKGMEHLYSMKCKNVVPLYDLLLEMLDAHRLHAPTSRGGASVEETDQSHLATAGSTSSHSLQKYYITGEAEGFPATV

[3] = biological target: T1, Estrogen Receptor (ERα) in MCF-7 cells; test: MCF-7 ER down-regulation assay (immuno-fluorescence); format: cell-based
Procedure: The ability of compounds to down-regulate Estrogen Receptor (ER) numbers was assessed in a cell based immuno-fluorescence assay using the MCF-7 human ductal carcinoma breast cell line. MCF-7 cells were revived directly from a cryovial (approx 5×10^6 cells) in Assay Medium (phenol red free Dulbecco's Modified Eagle's medium (DMEM); Sigma D5921) containing 2 mM L-Glutamine and 5% (v/v) Charcoal/Dextran treated foetal calf serum. Cells were syringed once using a sterile 18G×1.5 inch (1.2×40 mm) broad gauge needle and cell density was measured using a Coulter Counter (Beckman). […] Following cell seeding, plates were incubated overnight at 37° C., 5% CO2 (Liconic carousel incubator). Test data was generated using the LabCyte Echomodel 555 compound reformatter which is part of an automated workcell (Integrated Echo 2 workcell). Compound stock solutions (10 mM) of the test compounds were used to generate a 384 well compound dosing plate (Labcyte P-05525-CV1). […] 40 μL of DMSO added to wells in row P on the source plate allowed for DMSO normalisation across the dose range. To dose the control wells 40 μL of DMSO was added to row O1 and 40 μL of 100 μM fulvestrant in DMSO was added to row O3 on the compound source plate.
The Echo uses acoustic technology to perform direct microplate-to-microplate transfers of DMSO compound solutions to assay plates. The system can be programmed to transfer volumes as low as 2.5 nL in multiple increments between microplates and in so doing generates a serial dilution of compound in the assay plate which is then back-filled to normalise the DMSO concentration across the dilution range. […] The fixing method described above was carried out on the Integrated Echo 2 workcell. Immunostaining was performed using an automated AutoElisa workcell. The PBS/Proclin was aspirated from all wells and the cells permeabilised with 40 μL PBS containing 0.5% Tween™ 20 (v/v) for 1 hour at room temperature. The plates were washed three times in 250 μL of PBS/0.05% (v/v) Tween 20 with Proclin (PBST with a Biocide preservative) and then 20 μL of ERα (SP1) Rabbit monoclonal antibody (Thermofisher) 1:1000 in PBS/Tween™/3% (w/v) Bovine Serum Albumin was added. The plates were incubated overnight at 4° C. (Liconic carousel incubator) and then washed three times in 250 μL of PBS/0.05% (v/v) Tween™ 20 with Proclin (PBST). The plates were then incubated with 20 μL/well of a goat anti-rabbit IgG AlexaFluor 594 or goat anti-rabbit AlexaFluor 488 antibody (Molecular Probes) with Hoechst at 1:5000 in PBS/Tween™/3% (w/v) Bovine Serum Albumin for 1 hour at room temperature. The plates were then washed three times in 250 μL of PBS/0.05% (v/v) Tween™ 20 with Proclin (PBST with a Biocide preservative). 20 μL of PBS was added to each well and the plates covered with a black plate seal and stored at 4° C. before being read. […] The mean total intensity was normalized for cell number giving the total intensity per cell. The data was exported into a suitable software package (such as Origin) to perform curve fitting analysis.

[4] = biological target: recombinant human Estrogen Receptor alpha ligand binding domain (ER alpha-LBD (GST)) (Homo sapiens (Human), UniProt P03372); test: ERα binding assay (LanthaScreen TR-FRET competition)
Chain of recombinant human Estrogen Receptor alpha ligand binding domain (ER alpha-LBD (GST)) (P03372 307-554): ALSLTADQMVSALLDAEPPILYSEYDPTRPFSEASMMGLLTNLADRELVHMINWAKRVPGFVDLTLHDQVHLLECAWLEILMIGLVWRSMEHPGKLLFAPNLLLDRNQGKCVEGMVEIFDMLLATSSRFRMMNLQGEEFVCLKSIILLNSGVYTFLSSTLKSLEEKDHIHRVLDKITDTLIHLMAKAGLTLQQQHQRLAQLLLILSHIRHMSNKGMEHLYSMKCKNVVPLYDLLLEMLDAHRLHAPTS

[5] = Human plasma protein binding (equilibrium dialysis); format: in vitro ADME
Procedure: The automated equilibrium dialysis assay in human plasma uses the RED (Rapid Equilibrium Dialysis) Device and sample handling. The assay generally runs over two to three days including delivery of results. After dialysis for 18 hours, plasma and buffer samples are prepared for analysis by liquid chromatography and mass spectrometry. Samples are generally tested in singlicates and quantified by LC/MSMS by using a 7-point calibration curve in plasma. The compounds are pooled together in plasma pools up to 10 compounds. Three reference compounds are used in each run, Propranolol, Metoprolol and Warfarin. Warfarin is used as a control in each pool and Propranolol and Metoprolol are placed randomly in each run. An in-house Excel macro is used for preparation of files for the robot and the mass spectrometer and is also used for the calculations of fraction unbound (fu %) in plasma.

[6] = biological target: hERG potassium channel (Homo sapiens (Human), UniProt Q12809)
Chain of hERG potassium channel (Q12809 whole entry): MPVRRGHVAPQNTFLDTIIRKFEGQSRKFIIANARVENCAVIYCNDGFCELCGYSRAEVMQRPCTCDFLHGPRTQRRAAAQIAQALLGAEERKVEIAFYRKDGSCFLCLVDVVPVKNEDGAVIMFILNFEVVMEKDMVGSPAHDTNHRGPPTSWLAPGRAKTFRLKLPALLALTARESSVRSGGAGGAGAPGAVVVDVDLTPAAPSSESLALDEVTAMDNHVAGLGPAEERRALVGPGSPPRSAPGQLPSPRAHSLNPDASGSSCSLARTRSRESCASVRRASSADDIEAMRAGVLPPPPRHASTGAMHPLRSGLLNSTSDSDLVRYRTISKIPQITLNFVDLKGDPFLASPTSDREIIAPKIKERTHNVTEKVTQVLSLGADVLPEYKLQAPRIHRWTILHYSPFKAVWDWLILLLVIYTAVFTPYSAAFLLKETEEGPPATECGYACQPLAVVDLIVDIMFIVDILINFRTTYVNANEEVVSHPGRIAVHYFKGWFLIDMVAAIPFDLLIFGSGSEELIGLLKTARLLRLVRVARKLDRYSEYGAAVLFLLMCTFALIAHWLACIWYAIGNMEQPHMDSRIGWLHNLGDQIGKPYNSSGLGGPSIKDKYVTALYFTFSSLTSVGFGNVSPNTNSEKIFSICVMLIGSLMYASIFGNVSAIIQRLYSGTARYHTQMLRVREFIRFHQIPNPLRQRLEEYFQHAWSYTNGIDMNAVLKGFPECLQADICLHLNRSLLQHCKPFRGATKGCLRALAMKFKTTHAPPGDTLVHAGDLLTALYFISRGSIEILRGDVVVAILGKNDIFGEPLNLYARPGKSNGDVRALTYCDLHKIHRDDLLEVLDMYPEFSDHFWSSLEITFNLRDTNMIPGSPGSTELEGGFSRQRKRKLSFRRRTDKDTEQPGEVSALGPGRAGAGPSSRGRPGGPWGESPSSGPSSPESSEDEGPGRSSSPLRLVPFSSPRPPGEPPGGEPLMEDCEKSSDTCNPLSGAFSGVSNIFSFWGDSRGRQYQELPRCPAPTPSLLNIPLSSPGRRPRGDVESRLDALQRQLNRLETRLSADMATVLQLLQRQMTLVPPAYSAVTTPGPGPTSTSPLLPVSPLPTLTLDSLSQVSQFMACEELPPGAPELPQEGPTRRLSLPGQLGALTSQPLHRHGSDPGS

[7] = Thermodynamic solubility (shake-flask); format: physicochemical; conditions: aqueous phosphate buffer, 25 °C, pH 7.4, aqueous buffer, thermodynamic from solid, phosphate buffer pH 7.4, 24 hours
[8] = Log D (shake flask, 1-octanol/aqueous buffer); format: physicochemical; conditions: 1-octanol/aqueous buffer, pH 7.4, pH 7.4

T1 sequence (P03372 whole entry): as the sequence (P03372 whole entry) above

C[C@@H]1Cc2c([nH]c3ccccc23)[C@@H](c2cc(OCCNCCCF)ccc2F)N1CC(F)(F)F [Example 10, 3-fluoro-N-(2-(4-fluoro-3-((1R,3R)-3-methyl-2-(2,2,2-trifluoroethyl)-2,3,4,9-tetrahydro-1H-pyrido[3,4-b]indol-1-yl)phenoxy)ethyl)propan-1-amine]
MCF7 Western % ER deg vs Fv [1]: 94%
CAMA1 Western % ER deg vs Fv [2]: 101%

Cc1c(OCCNCCCF)ccc(F)c1[C@@H]1c2[nH]c3ccc(F)cc3c2C[C@@H](C)N1C[C@H](C)C(=O)O [Example 57, (S)-3-((1R,3R)-6-fluoro-1-(6-fluoro-3-(2-((3-fluoropropyl)amino)ethoxy)-2-methylphenyl)-3-methyl-1,3,4,9-tetrahydro-2H-pyrido[3,4-b]indol-2-yl)-2-methylpropanoic acid]
MCF7 Western % ER deg vs Fv [1]: 93%
IC50 [3]: 0.34 nM
IC50 [4]: 2.6 nM

C[C@@H](CN1[C@H](c2c(F)ccc(OCCNCCCF)c2Cl)c2[nH]c3ccccc3c2C[C@H]1C(F)(F)F)C(=O)O [Example 141]
MCF7 Western % ER deg vs Fv [1]: 79%
IC50 [3]: 0.98 nM
IC50 [4]: 2.8 nM

Cc1c(OCCN(C)CCCF)ncc(F)c1[C@@H]1c2[nH]c3ccccc3c2C[C@@H](C)N1C[C@H](C)C(=O)O [Example 145, (S)-3-((1R,3R)-1-(5-fluoro-2-(2-((3-fluoropropyl)(methyl)amino)ethoxy)-3-methylpyridin-4-yl)-3-methyl-1,3,4,9-tetrahydro-2H-pyrido[3,4-b]indol-2-yl)-2-methylpropanoic acid]
MCF7 Western % ER deg vs Fv [1]: 94%

COc1ccc(NCCNCCCF)cc1[C@@H]1c2[nH]c3ccccc3c2C[C@@H](C)N1CC(F)(F)F [Example 40, N1-(3-fluoropropyl)-N2-(4-methoxy-3-((1R,3R)-3-methyl-2-(2,2,2-trifluoroethyl)-2,3,4,9-tetrahydro-1H-pyrido[3,4-b]indol-1-yl)phenyl)ethane-1,2-diamine]
Human plasma protein binding (% free) [5]: 0.89 % free
IC50 [6]: 4100 nM
IC50 [3]: 0.53 nM
solubility at 24 h [7]: 366 µM (≈ 180 µg/mL)
CAMA1 Western % ER deg vs Fv [2]: 70%
logD [8]: 3
IC50 [4]: 7.9 nM

Cc1c(OCCNCCCF)ccc(F)c1[C@@H]1c2[nH]c3ccccc3c2C[C@@H](C(F)(F)F)N1C[C@H](C)C(=O)O [Example 140, (S)-3-((1R,3S)-1-(6-fluoro-3-(2-((3-fluoropropyl)amino)ethoxy)-2-methylphenyl)-3-(trifluoromethyl)-1,3,4,9-tetrahydro-2H-pyrido[3,4-b]indol-2-yl)-2-methylpropanoic acid]
MCF7 Western % ER deg vs Fv [1]: 84%
IC50 [3]: 1 nM
IC50 [4]: 1.4 nM

C[C@@H]1Cc2c([nH]c3ccccc23)[C@@H](c2c(F)cnc(OCCNCCCF)c2F)N1CC1(F)CC1 [Example 108, N-(2-((3,5-difluoro-4-((1R,3R)-2-((1-fluorocyclopropyl)methyl)-3-methyl-2,3,4,9-tetrahydro-1H-pyrido[3,4-b]indol-1-yl)pyridin-2-yl)oxy)ethyl)-3-fluoropropan-1-amine]
Human plasma protein binding (% free) [5]: 2.3 % free
IC50 [6]: 6000 nM
IC50 [3]: 0.3 nM
solubility at 24 h [7]: 375 µM (≈ 184 µg/mL)
logD [8]: 3.2
IC50 [4]: 1 nM

Cc1c(OCCNCCCF)ncnc1[C@@H]1c2[nH]c3ccccc3c2C[C@@H](C)N1CC(F)(F)F [Example 114, 3-fluoro-N-(2-((5-methyl-6-((1S,3R)-3-methyl-2-(2,2,2-trifluoroethyl)-2,3,4,9-tetrahydro-1H-pyrido[3,4-b]indol-1-yl)pyrimidin-4-yl)oxy)ethyl)propan-1-amine]
Human plasma protein binding (% free) [5]: 1.7 % free
IC50 [6]: 5900 nM
IC50 [3]: 0.2 nM
solubility at 24 h [7]: 276 µM (≈ 132 µg/mL)
logD [8]: 3.3
IC50 [4]: 0.74 nM

Cc1c([C@@H]2c3[nH]c4ccccc4c3C[C@@H](C)N2C[C@@H](C)C(=O)O)ccnc1OCCN(C)CCCF [Example 161, (R)-3-((1R,3R)-1-(2-(2-((3-fluoropropyl)(methyl)amino)ethoxy)-3-methylpyridin-4-yl)-3-methyl-1,3,4,9-tetrahydro-2H-pyrido[3,4-b]indol-2-yl)-2-methylpropanoic acid]
Human plasma protein binding (% free) [5]: 6.3 % free
IC50 [6]: > 40000 nM
IC50 [3]: 1.1 nM
solubility at 24 h [7]: > 1000 µM
logD [8]: 1.3
IC50 [4]: 1.7 nM

C[C@@H]1Cc2c([nH]c3ccccc23)[C@@H](c2nccc(NCCNCCCF)c2F)N1CC(F)(F)F [Example 94, N1-(3-fluoro-2-((1S,3R)-3-methyl-2-(2,2,2-trifluoroethyl)-2,3,4,9-tetrahydro-1H-pyrido[3,4-b]indol-1-yl)pyridin-4-yl)-N2-(3-fluoropropyl)ethane-1,2-diamine]
Human plasma protein binding (% free) [5]: 7 % free
IC50 [6]: 9900 nM
IC50 [3]: 9.2 nM
solubility at 24 h [7]: 698 µM (≈ 336 µg/mL)
logD [8]: 2.4
IC50 [4]: 3.6 nM

Cc1c([C@@H]2c3[nH]c4ccccc4c3C[C@@H](C)N2C[C@H](C)C(=O)O)ccnc1OCCNCCCF [Example 132, (S)-3-((1R,3R)-1-(2-(2-((3-fluoropropyl)amino)ethoxy)-3-methylpyridin-4-yl)-3-methyl-1,3,4,9-tetrahydro-2H-pyrido[3,4-b]indol-2-yl)-2-methylpropanoic acid]
Human plasma protein binding (% free) [5]: 34 % free
IC50 [6]: > 40000 nM
IC50 [3]: 0.98 nM
solubility at 24 h [7]: 914 µM (≈ 441 µg/mL)
logD [8]: 0.6
IC50 [4]: 2 nM

C[C@@H]1Cc2c([nH]c3ccccc23)[C@@H](c2cc(OCCNCCCF)cc(F)c2F)N1CC(F)(F)F [Example 30, N-(2-(3,4-difluoro-5-((1R,3R)-3-methyl-2-(2,2,2-trifluoroethyl)-2,3,4,9-tetrahydro-1H-pyrido[3,4-b]indol-1-yl)phenoxy)ethyl)-3-fluoropropan-1-amine]
Human plasma protein binding (% free) [5]: 0.72 % free
IC50 [6]: 2300 nM
IC50 [3]: 0.32 nM
solubility at 24 h [7]: 39 µM (≈ 19.5 µg/mL)
logD [8]: 4.1
IC50 [4]: 2.1 nM

C[C@@H]1Cc2c([nH]c3ccccc23)[C@@H](c2cc(OCCNCCCF)ccc2CO)N1CC(F)(F)F [Example 70, (4-(2-((3-fluoropropyl)amino)ethoxy)-2-((1R,3R)-3-methyl-2-(2,2,2-trifluoroethyl)-2,3,4,9-tetrahydro-1H-pyrido[3,4-b]indol-1-yl)phenyl)methanol]
Human plasma protein binding (% free) [5]: 23 % free
IC50 [6]: 6300 nM
IC50 [3]: 180 nM
solubility at 24 h [7]: 231 µM (≈ 114 µg/mL)
logD [8]: 2.2
IC50 [4]: 1300 nM

C[C@@H]1Cc2c([nH]c3ccc(F)cc23)[C@@H](c2c(F)ccc(NCCNCCCF)c2F)N1CC(F)(F)CO [Example 89, 3-((1R,3R)-1-(2,6-difluoro-3-((2-((3-fluoropropyl)amino)ethyl)amino)phenyl)-6-fluoro-3-methyl-1,3,4,9-tetrahydro-2H-pyrido[3,4-b]indol-2-yl)-2,2-difluoropropan-1-ol]
Human plasma protein binding (% free) [5]: <3.4 % free
IC50 [6]: 6100 nM
IC50 [3]: 0.14 nM
solubility at 24 h [7]: 670 µM (≈ 354 µg/mL)
logD [8]: 2.7
IC50 [4]: 0.91 nM

COc1cc(F)c(NCCNCCCF)cc1[C@@H]1c2[nH]c3ccccc3c2C[C@@H](C)N1CC(F)(F)F [Example 91, N1-(2-fluoro-4-methoxy-5-((1R,3R)-3-methyl-2-(2,2,2-trifluoroethyl)-2,3,4,9-tetrahydro-1H-pyrido[3,4-b]indol-1-yl)phenyl)-N2-(3-fluoropropyl)ethane-1,2-diamine]
Human plasma protein binding (% free) [5]: 0.93 % free
IC50 [6]: 2600 nM
IC50 [3]: 15 nM
solubility at 24 h [7]: 280 µM (≈ 143 µg/mL)
logD [8]: 2.9
IC50 [4]: 9.4 nM

Cc1c(OCCNCCCF)cccc1[C@@H]1c2[nH]c3ccccc3c2C[C@@H](C)N1CC(F)(F)F [Example 20, 3-fluoro-N-(2-(2-methyl-3-((1R,3R)-3-methyl-2-(2,2,2-trifluoroethyl)-2,3,4,9-tetrahydro-1H-pyrido[3,4-b]indol-1-yl)phenoxy)ethyl)propan-1-amine]
solubility at 24 h [7]: 11 µM (≈ 5.25 µg/mL)
CAMA1 Western % ER deg vs Fv [2]: 91%

C[C@@H]1Cc2c([nH]c3ccccc23)[C@@H](c2cccc(OCCNCCCF)c2C(F)F)N1CC(F)(F)CO [Example 68, 3-((1R,3R)-1-(2-(difluoromethyl)-3-(2-((3-fluoropropyl)amino)ethoxy)phenyl)-3-methyl-1,3,4,9-tetrahydro-2H-pyrido[3,4-b]indol-2-yl)-2,2-difluoropropan-1-ol]
Human plasma protein binding (% free) [5]: 1.2 % free
IC50 [6]: 2000 nM
IC50 [3]: 0.095 nM
solubility at 24 h [7]: 56.6 µM (≈ 29.7 µg/mL)
logD [8]: 3.2
IC50 [4]: 0.69 nM

COc1c(F)cc(OCCNCCCF)c(F)c1[C@@H]1c2[nH]c3ccccc3c2C[C@@H](C)N1CC(F)(F)F [Example 29, N-(2-(2,5-difluoro-4-methoxy-3-((1R,3R)-3-methyl-2-(2,2,2-trifluoroethyl)-2,3,4,9-tetrahydro-1H-pyrido[3,4-b]indol-1-yl)phenoxy)ethyl)-3-fluoropropan-1-amine]
Human plasma protein binding (% free) [5]: <3.2 % free
IC50 [6]: 5100 nM
IC50 [3]: 0.44 nM
solubility at 24 h [7]: 58 µM (≈ 30.7 µg/mL)
logD [8]: > 3.2
IC50 [4]: 2 nM

Cc1c(OCCN(C)CCCF)ncc(F)c1[C@@H]1c2[nH]c3ccccc3c2C[C@@H](C)N1C[C@@H](C)C(=O)O [Example 152, (R)-3-((1R,3R)-1-(5-fluoro-2-(2-((3-fluoropropyl)(methyl)amino)ethoxy)-3-methylpyridin-4-yl)-3-methyl-1,3,4,9-tetrahydro-2H-pyrido[3,4-b]indol-2-yl)-2-methylpropanoic acid]
MCF7 Western % ER deg vs Fv [1]: 93%
